Source: ChEMBL document CHEMBL1122687, “Sulfur analogues of psychotomimetic agents. 3. Ethyl homologues of mescaline and their monothio analogues” (1984)

Species: Homo sapiens
Test: Psychotomimetic potency of compound relative to that of mescaline (Human potency of mescaline = 1 MU)
Type: functional

| Structure (SMILES) | Relative activity |
| --- | --- |
| COc1cc(CCN)cc(OC)c1SC | 12 |
| CCOc1c(OC)cc(CCN)cc1SC | 6 |
| CCOc1c(OC)cc(CCN)cc1OC | 6 |
| CCOc1cc(CCN)cc(OC)c1OCC | 1.5 |
| CCOc1cc(CCN)cc(OC)c1SCC | 4 |
| CCCSc1c(OC)cc(CCN)cc1OC | 16 |
| CCOc1cc(CCN)cc(OCC)c1OCC | <1 |
| CCSc1cc(CCN)cc(OC)c1OC | 6 |
| CCOc1cc(CCN)cc(OCC)c1SCC | <1 |
| CCCOc1cc(CCN)cc(OC)c1OC | <1 |
| CCOc1c(OC)cc(CCN)cc1SCC | 2 |
| CCCCSc1c(OC)cc(CCN)cc1OC | 3 |
| CCOc1cc(CCN)cc(SCC)c1OCC | <1 |
| CCCCOc1c(OC)cc(CCN)cc1OC | 2 |
| CCOc1cc(CCN)cc(OCC)c1SC | <1 |
| CCCOc1c(OC)cc(CCN)cc1OC | 10 |
| CCOc1cc(CCN)cc(OC)c1SC | 4 |
| CCOc1cc(CCN)cc(SCC)c1OC | <1 |
| CCOc1cc(CCN)cc(SC)c1OC | <1 |
| CCOc1cc(CCN)cc(SC)c1OCC | 2 |
| CCSc1c(OC)cc(CCN)cc1OC | 20 |
| CCOc1cc(CCN)cc(OC)c1OC | 1 |
| CCOc1cc(CCN)cc(OCC)c1OC | <1 |

Species: Homo sapiens
Test: Psychotomimetic potency of compound relative to that of mescaline(Human potency of mescaline = 1 MU)
Type: functional

| Structure (SMILES) | Relative activity |
| --- | --- |
| COc1cc(CCN)cc(SC)c1OC | 6 |
| COc1cc(CCN)cc(OC)c1OC [MESCALINE] | 1 |
